Source: ChEMBL document CHEMBL1201862, “PubChem BioAssay data set” (2004)
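Values below derive from 48-hour exposures of cells grown in 96-well plates, with endpoints linearly interpolated between the two concentrations bracketing the appropriate inhibition level. At the GI50, growth is halved.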 Active and inactive are the calls of the source. Cut-off read from the data, not from the text of the source: active = GI50 up to about 1.1 µM and inactive = higher.

Columns and labels:
Assay in all cases: inhibition of tumour cell growth, NCI panel, 48 h
[1] = tested on: CAKI-1
[2] = tested on: RXF 393
[3] = tested on: OVCAR-3
[4] = tested on: SNB-78
[5] = tested on: HOP-62
[6] = tested on: HCT-116
[7] = tested on: K562
[8] = tested on: M14
[9] = tested on: SR
[10] = tested on: UACC-62
[11] = tested on: LOX IMVI
[12] = tested on: NCI-H226
[13] = tested on: KM-20L2
[14] = tested on: NCI-H23
[15] = tested on: OVCAR-5
[16] = tested on: U-251
[17] = tested on: SF-295
[18] = tested on: UACC-257
[19] = tested on: EKVX
[20] = tested on: SK-MEL-28
[21] = tested on: UO-31
[22] = tested on: 786-0
[23] = tested on: SNB-75
[24] = tested on: OVCAR-8
[25] = tested on: XF498
[26] = tested on: SNB-19
[27] = tested on: NCI-H522
[28] = tested on: SK-OV-3
[29] = tested on: SW-620
[30] = tested on: RXF 631
[31] = tested on: DMS-114
[32] = tested on: SF-539
[33] = tested on: HCT-15
[34] = tested on: CCRF-CEM
[35] = tested on: MOLT-4
[36] = tested on: ACHN
[37] = tested on: IGROV-1
[38] = tested on: HT-29
[39] = tested on: KM12
[40] = tested on: HL-60
[41] = tested on: Malme-3M
[42] = tested on: TK-10
[43] = tested on: SF-268
[44] = tested on: RPMI-8226
[45] = tested on: HCC 2998
[46] = tested on: A549
[47] = tested on: LXFL 529
[48] = tested on: SK-MEL-2
[49] = tested on: M19-MEL
[50] = tested on: NCI-H460
[51] = tested on: SN12C
[52] = tested on: COLO 205
[53] = tested on: OVCAR-4
[54] = tested on: DLD-1
[55] = tested on: DMS-273
[56] = tested on: A498
[57] = tested on: HOP-92
[58] = tested on: HOP-18
[59] = tested on: SK-MEL-5

## CCC1=CCN(c2ccc(C)cc2)OC1c1ccc(OC)cc1 (stereo not given)
[1]
  GI50: 94.8 µM (inactive)
[2]
  GI50: 69.7 µM (inactive)
[3]
  GI50: > 100 µM (inactive)
[4]
  GI50: > 100 µM (inactive)
[5]
  GI50: > 100 µM (inactive)
[6]
  GI50: 59.6 µM (inactive)
[7]
  GI50: 94.8 µM (inactive)
[8]
  GI50: 52.6 µM (inactive)
[9]
  GI50: 47.4 µM (inactive)
[10]
  GI50: > 100 µM (inactive)
[11]
  GI50: > 100 µM (inactive)
[12]
  GI50: > 100 µM (inactive)
[13]
  GI50: 66.5 µM (inactive)
[14]
  GI50: 39.7 µM (inactive)
[15]
  GI50: > 100 µM (inactive)
[16]
  GI50: 73.3 µM (inactive)
[17]
  GI50: 92.7 µM (inactive)
[18]
  GI50: 37 µM (inactive)
[19]
  GI50: > 100 µM (inactive)
[20]
  GI50: 50.2 µM (inactive)
[21]
  GI50: 90.6 µM (inactive)
[22]
  GI50: > 100 µM (inactive)
[23]
  GI50: > 100 µM (inactive)
[24]
  GI50: > 100 µM (inactive)
[25]
  GI50: 46.6 µM (inactive)
[26]
  GI50: > 100 µM (inactive)
[27]
  GI50: 23.6 µM (inactive)
[28]
  GI50: > 100 µM (inactive)
[29]
  GI50: > 100 µM (inactive)
[30]
  GI50: 52.4 µM (inactive)
[31]
  GI50: > 100 µM (inactive)
[32]
  GI50: > 100 µM (inactive)
[33]
  GI50: 47 µM
[34]
  GI50: 56.6 µM (inactive)
[35]
  GI50: > 100 µM (inactive)
[36]
  GI50: > 100 µM (inactive)
[37]
  GI50: > 100 µM (inactive)
[38]
  GI50: 33.8 µM (inactive)
[39]
  GI50: > 100 µM (inactive)
[40]
  GI50: 68.2 µM (inactive)
[41]
  GI50: 66.4 µM (inactive)
[42]
  GI50: > 100 µM (inactive)
[43]
  GI50: > 100 µM (inactive)
[44]
  GI50: 43.3 µM (inactive)
[45]
  GI50: 70.5 µM (inactive)
[46]
  GI50: 71.8 µM (inactive)
[47]
  GI50: 62.4 µM (inactive)
[48]
  GI50: 32.3 µM (inactive)
[49]
  GI50: 42.7 µM (inactive)
[50]
  GI50: > 100 µM (inactive)
[51]
  GI50: > 100 µM (inactive)
[52]
  GI50: > 100 µM (inactive)
[53]
  GI50: 92.7 µM (inactive)
[54]
  GI50: 58.1 µM (inactive)
[55]
  GI50: 69.8 µM (inactive)

## c1ccc2c(c1)nnn2CNc1ccc(N2CCOCC2)cc1
[56]
  GI50: > 100 µM (inactive)
[2]
  GI50: > 100 µM (inactive)
[3]
  GI50: > 100 µM (inactive)
[4]
  GI50: > 100 µM (inactive)
[5]
  GI50: > 100 µM (inactive)
[6]
  GI50: > 100 µM (inactive)
[7]
  GI50: > 100 µM (inactive)
[8]
  GI50: > 100 µM (inactive)
[9]
  GI50: 43.3 µM (inactive)
[10]
  GI50: > 100 µM (inactive)
[11]
  GI50: > 100 µM (inactive)
[12]
  GI50: > 100 µM (inactive)
[13]
  GI50: > 100 µM (inactive)
[14]
  GI50: > 100 µM (inactive)
[16]
  GI50: > 100 µM (inactive)
[17]
  GI50: > 100 µM (inactive)
[18]
  GI50: > 100 µM (inactive)
[19]
  GI50: > 100 µM (inactive)
[20]
  GI50: > 100 µM (inactive)
[21]
  GI50: > 100 µM (inactive)
[22]
  GI50: > 100 µM (inactive)
[23]
  GI50: > 100 µM (inactive)
[57]
  GI50: > 100 µM (inactive)
[24]
  GI50: > 100 µM (inactive)
[25]
  GI50: > 100 µM (inactive)
[26]
  GI50: > 100 µM (inactive)
[27]
  GI50: > 100 µM (inactive)
[28]
  GI50: > 100 µM (inactive)
[29]
  GI50: > 100 µM (inactive)
[31]
  GI50: > 100 µM (inactive)
[32]
  GI50: > 100 µM (inactive)
[33]
  GI50: > 100 µM
[34]
  GI50: > 100 µM (inactive)
[35]
  GI50: > 100 µM (inactive)
[36]
  GI50: 67.3 µM (inactive)
[37]
  GI50: > 100 µM (inactive)
[38]
  GI50: > 100 µM (inactive)
[39]
  GI50: > 100 µM (inactive)
[40]
  GI50: 33.3 µM (inactive)
[41]
  GI50: > 100 µM (inactive)
[58]
  GI50: > 100 µM (inactive)
[42]
  GI50: > 100 µM (inactive)
[43]
  GI50: > 100 µM (inactive)
[44]
  GI50: 47.4 µM (inactive)
[45]
  GI50: > 100 µM (inactive)
[46]
  GI50: > 100 µM (inactive)
[47]
  GI50: > 100 µM (inactive)
[48]
  GI50: > 100 µM (inactive)
[49]
  GI50: > 100 µM (inactive)
[50]
  GI50: > 100 µM (inactive)
[51]
  GI50: > 100 µM (inactive)
[52]
  GI50: > 100 µM (inactive)
[53]
  GI50: > 100 µM (inactive)
[54]
  GI50: > 100 µM (inactive)
[55]
  GI50: > 100 µM (inactive)

## CN(C)/N=C(/c1nc2ccc(Cl)cc2nc1O)C(O)c1ccc(C(O)/C(=N\N(C)C)c2nc3ccc(Cl)cc3nc2O)cc1 (stereo not given)
[59]
  GI50: > 100 µM (inactive)
[1]
  GI50: > 100 µM (inactive)
[56]
  GI50: 61 µM (inactive)
[2]
  GI50: > 100 µM (inactive)
[3]
  GI50: > 100 µM (inactive)
[5]
  GI50: 93.1 µM (inactive)
[6]
  GI50: > 100 µM (inactive)
[7]
  GI50: 60.3 µM (inactive)
[8]
  GI50: > 100 µM (inactive)
[9]
  GI50: 38 µM (inactive)
[10]
  GI50: > 100 µM (inactive)
[13]
  GI50: 84.9 µM (inactive)
[14]
  GI50: > 100 µM (inactive)
[15]
  GI50: > 100 µM (inactive)
[17]
  GI50: > 100 µM (inactive)
[18]
  GI50: > 100 µM (inactive)
[19]
  GI50: > 100 µM (inactive)
[20]
  GI50: > 100 µM (inactive)
[21]
  GI50: > 100 µM (inactive)
[22]
  GI50: > 100 µM (inactive)
[57]
  GI50: 81.7 µM (inactive)
[24]
  GI50: > 100 µM (inactive)
[26]
  GI50: > 100 µM (inactive)
[27]
  GI50: > 100 µM (inactive)
[28]
  GI50: > 100 µM (inactive)
[29]
  GI50: > 100 µM (inactive)
[30]
  GI50: 91.4 µM (inactive)
[31]
  GI50: 53.7 µM (inactive)
[32]
  GI50: > 100 µM (inactive)
[34]
  GI50: 6.43 µM (inactive)
[35]
  GI50: 52.4 µM (inactive)
[36]
  GI50: > 100 µM (inactive)
[37]
  GI50: > 100 µM (inactive)
[38]
  GI50: > 100 µM (inactive)
[39]
  GI50: > 100 µM (inactive)
[40]
  GI50: 27.9 µM (inactive)
[41]
  GI50: > 100 µM (inactive)
[42]
  GI50: > 100 µM (inactive)
[43]
  GI50: > 100 µM (inactive)
[44]
  GI50: 14.1 µM (inactive)
[45]
  GI50: > 100 µM (inactive)
[46]
  GI50: > 100 µM (inactive)
[48]
  GI50: > 100 µM (inactive)
[49]
  GI50: > 100 µM (inactive)
[50]
  GI50: > 100 µM (inactive)
[51]
  GI50: > 100 µM (inactive)
[52]
  GI50: > 100 µM (inactive)
[53]
  GI50: > 100 µM (inactive)
[54]
  GI50: > 100 µM (inactive)

## CCCCCCCCCCCCCCCCCC(=O)NCC(COP(=O)([O-])OCC[N+](C)(C)C)OCC (stereo not given)
[59]
  GI50: 17.7 µM (inactive)
[11]
  GI50: 24.9 µM (inactive)
[13]
  GI50: 0.237 µM (active)
[14]
  GI50: 19.7 µM (inactive)
[18]
  GI50: 18.6 µM (inactive)
[19]
  GI50: 21.9 µM (inactive)
[20]
  GI50: 18.2 µM (inactive)
[21]
  GI50: 19.5 µM (inactive)
[26]
  GI50: 0.174 µM (active)
[28]
  GI50: 19.4 µM (inactive)
[30]
  GI50: 22.2 µM (inactive)
[31]
  GI50: 18.5 µM (inactive)
[32]
  GI50: 17.7 µM (inactive)
[41]
  GI50: 21.3 µM (inactive)
[46]
  GI50: 19.2 µM (inactive)
[55]
  GI50: 0.137 µM (active)
